Assay results from ChEMBL document CHEMBL5352478, “Novel pyridine-containing histone deacetylase inhibitors strongly arrest proliferation, induce apoptosis and modulate miRNAs in cancer cells” (Eur J Med Chem, 2023).
pIC50: −log10 of the molar value.

Assays:
HCT-116 = test: cells; format: functional, cell-based; details: Homo sapiens, HCT-116, 72 h
A549 = test: cells; format: functional, cell-based; details: Homo sapiens, A549, 72 h
K562 = test: cells; format: functional, cell-based; details: Homo sapiens, K562, 72 h
U-937 = test: Induction of cell cycle arrest in human U-937 cells assessed as accumulation of cells in G1 phase at 5 uM for 48 hrs by PI staining based flow cytometric analysis; format: functional

- pIC50 (HCT-116): 5.97
- pIC50 (A549): 5.65
- pIC50 (K562): 6.24
SMILES: Nc1ccccc1NC(=O)c1ccc(CNC(=O)OCc2cccnc2)cc1 [ENTINOSTAT]
- Activity (U-937): 70%
